Among the data in ChEMBL document CHEMBL1201862, “PubChem BioAssay data set” (2004) are EC50, AC50 and IC50 values, retold here.

Calls of active or inactive are those of the source. A value given as a limit tells only on which side of the number the result lay.

One assay addresses Transthyretin (Homo sapiens, UniProt P02766). Briefly: Luminescence-based cell-based high throughput dose response assay to identify activators of Transthyretin (TTR) transcription. The assay is classed as functional.
Assay [1] deals with Metabotropic glutamate receptor 7 (Homo sapiens, UniProt Q14831). Briefly: potentiation of glutamate EC20 at mGlu7 – cell-based, calcium mobilization, Galpha15, dose response (AID 743384). The assay is classed as functional. In general terms: Calcium assays in cells follow changes in intracellular calcium, usually with a dye or a luminescent sensor.
Assay [2] in a line: P. falciparum Dd2 growth inhibitors, dose response, SYBR Green, cherry-picked samples (AID 1159567). The assay is classed as functional, cell-based.
The nature of assay [3]: growth inhibition of PfATP4-mutant resistant parasites – NITD609-resistant line, SYBR Green, dry powder, dose response (AID 1159571).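 Further: parasites synchronized at ring stage by sorbitol before testing.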 It is filed as functional, cell-based.
A short description of assay [4]: Dd2 malaria parasite growth inhibition potency – SYBR Green, dry powder samples, dose response (AID 1159566).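 Further: potency for growth inhibition with lower SYBR green DNA signal.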 The assay is classed as functional, cell-based.
Assay [5] can be described thus: growth inhibition of yeast DHODH-expressing 3D7 parasites – SYBR Green, dry powder samples, dose response (AID 1159570).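 Further: parasite growth measured after 72 hours of compound exposure.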 It is filed as functional, cell-based.
In assay [6] the target is T1, Phospholipase D2 (Homo sapiens, UniProt O14939). Briefly: Discovery of PLD2 inhibitors using the Purified Enzyme Concentration Response Assay. The assay is classed as functional.
Another assay has as its target Phospholipase D1 (Homo sapiens, UniProt Q13393). Briefly: PLD1 Cellular Concentration Response Study. It is filed as functional.
The target in assay [7] is T1, Phospholipase D2. Description: PLD2 Cellular Concentration Response Study. The assay is classed as functional.

T1 sequence (O14939 whole entry): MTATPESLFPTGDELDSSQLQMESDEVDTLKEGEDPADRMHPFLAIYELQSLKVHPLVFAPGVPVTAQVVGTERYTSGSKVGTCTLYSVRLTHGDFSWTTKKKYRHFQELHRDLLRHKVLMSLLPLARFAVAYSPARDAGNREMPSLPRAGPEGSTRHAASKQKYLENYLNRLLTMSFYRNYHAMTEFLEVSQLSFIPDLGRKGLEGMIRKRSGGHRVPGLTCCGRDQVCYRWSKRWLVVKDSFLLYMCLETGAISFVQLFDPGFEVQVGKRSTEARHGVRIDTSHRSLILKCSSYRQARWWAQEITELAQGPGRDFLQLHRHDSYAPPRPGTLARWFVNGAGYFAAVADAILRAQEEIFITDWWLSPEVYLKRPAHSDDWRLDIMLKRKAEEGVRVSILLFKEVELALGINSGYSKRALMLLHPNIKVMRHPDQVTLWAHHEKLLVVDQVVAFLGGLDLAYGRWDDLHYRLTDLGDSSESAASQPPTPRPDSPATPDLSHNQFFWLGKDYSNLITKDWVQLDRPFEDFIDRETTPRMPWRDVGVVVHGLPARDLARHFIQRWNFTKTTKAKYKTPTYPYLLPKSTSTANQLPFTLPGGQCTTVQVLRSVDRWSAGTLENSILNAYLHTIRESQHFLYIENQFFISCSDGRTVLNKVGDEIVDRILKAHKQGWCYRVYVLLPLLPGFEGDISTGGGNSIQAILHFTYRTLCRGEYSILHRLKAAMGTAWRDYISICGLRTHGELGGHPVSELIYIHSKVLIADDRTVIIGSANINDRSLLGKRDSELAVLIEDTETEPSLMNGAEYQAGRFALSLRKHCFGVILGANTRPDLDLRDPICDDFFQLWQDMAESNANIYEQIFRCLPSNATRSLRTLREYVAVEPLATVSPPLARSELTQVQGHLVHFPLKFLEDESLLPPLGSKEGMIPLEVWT
Sequence of Metabotropic glutamate receptor 7 (Q14831 whole entry): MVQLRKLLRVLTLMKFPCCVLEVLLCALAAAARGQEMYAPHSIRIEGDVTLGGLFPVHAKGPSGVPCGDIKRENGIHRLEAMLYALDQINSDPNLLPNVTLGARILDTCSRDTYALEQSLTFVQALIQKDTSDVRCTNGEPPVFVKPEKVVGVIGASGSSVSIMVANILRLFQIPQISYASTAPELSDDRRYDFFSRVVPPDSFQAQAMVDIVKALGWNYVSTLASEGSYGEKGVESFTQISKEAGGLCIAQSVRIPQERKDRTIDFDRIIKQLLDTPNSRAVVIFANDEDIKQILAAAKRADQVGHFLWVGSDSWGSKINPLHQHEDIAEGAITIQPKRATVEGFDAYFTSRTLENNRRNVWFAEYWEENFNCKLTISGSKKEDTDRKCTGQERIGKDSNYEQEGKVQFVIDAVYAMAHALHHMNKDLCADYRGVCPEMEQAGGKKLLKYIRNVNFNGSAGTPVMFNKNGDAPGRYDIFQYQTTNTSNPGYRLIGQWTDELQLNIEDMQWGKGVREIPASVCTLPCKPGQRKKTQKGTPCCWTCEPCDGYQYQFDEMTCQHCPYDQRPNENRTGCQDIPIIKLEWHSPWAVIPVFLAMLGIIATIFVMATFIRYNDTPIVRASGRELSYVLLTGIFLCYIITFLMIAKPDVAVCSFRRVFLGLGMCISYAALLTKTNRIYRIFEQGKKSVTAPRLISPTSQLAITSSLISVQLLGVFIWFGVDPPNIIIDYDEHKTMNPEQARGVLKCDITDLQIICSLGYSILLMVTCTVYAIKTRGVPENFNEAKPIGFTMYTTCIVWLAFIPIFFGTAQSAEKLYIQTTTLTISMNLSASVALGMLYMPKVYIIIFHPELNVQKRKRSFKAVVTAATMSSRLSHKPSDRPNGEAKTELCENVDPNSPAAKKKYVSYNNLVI
Sequence of Phospholipase D1 (Q13393 whole entry): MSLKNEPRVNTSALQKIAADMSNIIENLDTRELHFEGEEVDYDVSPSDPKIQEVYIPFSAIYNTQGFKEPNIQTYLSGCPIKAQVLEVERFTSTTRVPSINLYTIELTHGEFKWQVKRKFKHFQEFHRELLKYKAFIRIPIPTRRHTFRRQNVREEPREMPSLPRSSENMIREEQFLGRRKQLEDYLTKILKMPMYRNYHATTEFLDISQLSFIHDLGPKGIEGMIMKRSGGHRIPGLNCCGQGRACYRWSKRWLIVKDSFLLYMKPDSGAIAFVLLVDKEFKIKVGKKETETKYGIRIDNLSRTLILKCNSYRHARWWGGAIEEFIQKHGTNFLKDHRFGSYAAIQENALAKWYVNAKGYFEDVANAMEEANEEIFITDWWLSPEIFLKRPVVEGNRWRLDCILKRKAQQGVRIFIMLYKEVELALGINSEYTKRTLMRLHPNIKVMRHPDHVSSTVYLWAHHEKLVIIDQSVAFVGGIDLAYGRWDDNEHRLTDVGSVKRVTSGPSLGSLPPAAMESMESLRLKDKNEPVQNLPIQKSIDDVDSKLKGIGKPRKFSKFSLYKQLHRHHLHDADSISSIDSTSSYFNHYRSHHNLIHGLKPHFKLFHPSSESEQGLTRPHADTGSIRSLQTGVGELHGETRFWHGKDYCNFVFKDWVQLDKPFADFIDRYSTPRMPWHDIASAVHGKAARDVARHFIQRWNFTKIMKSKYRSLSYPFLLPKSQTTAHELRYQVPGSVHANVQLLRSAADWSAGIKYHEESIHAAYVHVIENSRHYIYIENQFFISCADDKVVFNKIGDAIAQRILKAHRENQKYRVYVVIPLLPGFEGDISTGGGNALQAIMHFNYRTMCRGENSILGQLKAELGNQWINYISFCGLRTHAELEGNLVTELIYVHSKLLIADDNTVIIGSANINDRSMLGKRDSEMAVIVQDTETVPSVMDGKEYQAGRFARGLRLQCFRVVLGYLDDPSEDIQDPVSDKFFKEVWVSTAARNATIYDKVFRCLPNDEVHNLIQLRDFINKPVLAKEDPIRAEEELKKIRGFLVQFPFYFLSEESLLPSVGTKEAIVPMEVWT

As to `C/C(=N\Nc1ncc(Br)cn1)c1cccc([N+](=O)[O-])c1`, the EC50 at Transthyretin was > 167 µM (inactive).
`COC(=O)c1ccc(-n2c(C)cc(C(=O)COc3ccc(NC(C)=O)cc3)c2C)cc1`: the half-maximal effective concentration (EC50) in assay [1] was 2.4 µM (active).
`COc1cccc(C#Cc2cnc3c(c2)C(=O)N([C@@H](C)CO)C[C@H](C)[C@@H](CN(C)C(=O)C2CCCCC2)O3)c1`: the AC50 is 0.889 µM (active) in assay [2], 0.972 µM (active) in assay [3], 0.635 µM (active) in assay [4] and 0.783 µM (active) in [5].
Consider `O=C(NCCN1CCC2(CC1)C(=O)NCN2Cc1cccnc1)c1cc2ccccc2o1`, for which the results for the half-maximal inhibitory concentration (IC50) on Phospholipase D2 [6], on Phospholipase D1 and at Phospholipase D2 [7] were 12.5 µM (active), 20 µM (active) and 2.5 µM (active), respectively.

One may read the EC50 as the concentration at which the effect is half-maximal. In general, AC50 refers to the midpoint of the concentration-response curve, whichever way the signal moves. One may read the IC50 as the concentration at which inhibition is half-maximal.
